Measurements as given in paper PMC3644566 (Journal of chemical information and modeling, 2013).
pEC50: −log10 of the molar value.

Tests used:
[1] = tested on: P. falciparum 3D7 or K1 strains; test: P. falciparum growth inhibition assays of VS hits; type: cell-based, Plasmodium falciparum; conditions: against either 3D7 or K1 strains, most potent VS hit
P. falciparum 3D7 strain = test: P. falciparum growth inhibition assay; type: cell-based; conditions: Plasmodium falciparum, 3D7, 72 h, read-out: consensus EC50

Row | SMILES | pEC50 [1] | pEC50 (P. falciparum 3D7 strain)
1 | C=CC1CN2CCC1CC2C(OC(=O)C1CC1)c1ccnc2ccccc12 (stereo not drawn) [SJ000565000] | 7.02 | –
2 | CCN(CC)CCCC(C)Nc1ccnc2cc(Cl)ccc12 (stereo not drawn) [chloroquine] | – | 7.57
3 | OC(c1cc(C(F)(F)F)nc2c(C(F)(F)F)cccc12)C1CCCCN1 (stereo not drawn) [mefloquine] | – | 7.40
